This is an account of results in US7932270B2 (Cytokinetics, Inc., priority 2006, dated 2011).

The test has as its target T1, chicken gizzard smooth muscle myosin subfragment-1 chemically crosslinked to cardiac or skeletal actin (Gallus gallus, UniProt P10587).
T1 construct: chicken gizzard smooth muscle myosin subfragment-1; from tissue; host or cells: chicken gizzard
Put plainly: Smooth muscle myosin ATPase dose response assay (pyruvate kinase/horseradish peroxidase/pyruvate oxidase-coupled, amplex red fluorescence). Type of test: biochemical. Particulars: read-out: IC50 Arithmetic Mean. An outline of the steps: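 ATPase monitored by amplex red fluorescence (ex 480/em 615 nm) via pyruvate oxidase/HRP coupling, pH 7.00, ATP 0.15 mM. Enzyme: smooth muscle S1-actin crosslinked conjugate, amount set empirically by titration. Dose-response fitted with 4-parameter Hill equation for IC50.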

T1 sequence (P02607 2-151): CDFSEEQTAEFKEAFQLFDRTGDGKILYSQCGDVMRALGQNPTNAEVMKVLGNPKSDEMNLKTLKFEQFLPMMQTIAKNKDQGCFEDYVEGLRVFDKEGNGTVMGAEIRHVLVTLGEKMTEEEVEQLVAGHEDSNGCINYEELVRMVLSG
T1 sequence (P10587 84-789): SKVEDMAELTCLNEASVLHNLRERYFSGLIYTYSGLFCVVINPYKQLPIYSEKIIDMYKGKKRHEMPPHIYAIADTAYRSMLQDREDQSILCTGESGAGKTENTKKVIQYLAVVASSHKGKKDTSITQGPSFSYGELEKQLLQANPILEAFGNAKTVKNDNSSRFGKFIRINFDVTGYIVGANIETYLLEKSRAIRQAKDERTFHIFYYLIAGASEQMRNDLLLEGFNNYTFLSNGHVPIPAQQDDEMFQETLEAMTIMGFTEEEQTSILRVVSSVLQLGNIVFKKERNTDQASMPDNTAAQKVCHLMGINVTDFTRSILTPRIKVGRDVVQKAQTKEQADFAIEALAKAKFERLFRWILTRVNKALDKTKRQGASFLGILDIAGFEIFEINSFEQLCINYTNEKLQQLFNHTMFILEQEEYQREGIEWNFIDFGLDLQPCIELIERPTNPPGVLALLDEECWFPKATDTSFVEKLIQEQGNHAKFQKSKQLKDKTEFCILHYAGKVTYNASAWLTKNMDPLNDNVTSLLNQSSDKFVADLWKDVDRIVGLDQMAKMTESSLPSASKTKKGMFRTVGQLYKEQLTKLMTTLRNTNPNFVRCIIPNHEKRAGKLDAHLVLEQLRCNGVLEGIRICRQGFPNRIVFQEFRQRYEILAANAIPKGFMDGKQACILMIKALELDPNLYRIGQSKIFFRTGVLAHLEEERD

As to `Cc1cc(C(=O)NC[C@H]2CCC(=O)N2CCCN)c(NCCc2cccc(F)c2)nc1-c1cnn(C)c1` [N-{[(2R)-1-(3-aminopropyl)-5-oxopyrrolidin-2-yl]methyl}(2-{[2-(3-fluorophenyl)ethyl]amino}-5-methyl-6-(1-methylpyrazol-4-yl)(3-pyridyl))carboxamide], the IC50 was 577 nM.
As to `Cn1cc(-c2ccc(C(=O)NC[C@H]3CCC(=O)N3CCCN)c(NCCc3cccc(F)c3)n2)cn1` [N-{[(2R)-1-(3-aminopropyl)-5-oxopyrrolidin-2-yl]methyl}(2-{[2-(3-fluorophenyl)ethyl]amino}-6-(1-methylpyrazol-4-yl)(3-pyridyl))carboxamide], the IC50 came out at 290 nM.
With `NCCCN1C(=O)CC[C@@H]1CNC(=O)c1ccc(-c2cn[nH]c2)nc1NCCc1cccc(F)c1` [N-{[(2R)-1-(3-aminopropyl)-5-oxopyrrolidin-2-yl]methyl}(2-{[2-(3-fluorophenyl)ethyl]amino}-6-pyrazol-4-yl(3-pyridyl))carboxamide], the IC50 was 966 nM.
To `Cn1cc(-c2nc(NCCc3cccc(F)c3)c(C(=O)NC[C@H]3CCC(=O)N3CCCN)cc2Cl)cn1` [N-{[(2R)-1-(3-aminopropyl)-5-oxopyrrolidin-2-yl]methyl}(5-chloro-2-{[2-(3-fluorophenyl)ethyl]amino}-6-(1-methylpyrazol-4-yl)(3-pyridyl))carboxamide] belongs 160 nM; to `Cn1cc(-c2nc(NCCc3cccc(F)c3)c(C(=O)NC[C@H]3CCC(=O)N3CCCN)cc2C#N)cn1` [N-{[(2R)-1-(3-aminopropyl)-5-oxopyrrolidin-2-yl]methyl}(5-cyano-2-{[2-(3-fluorophenyl)ethyl]amino}-6-(1-methylpyrazol-4-yl)(3-pyridyl))carboxamide], 310 nM; to `N#Cc1cc(C(=O)NC[C@H]2CCC(=O)N2CCCN)c(NCCc2cccc(F)c2)nc1-c1cn[nH]c1` [N-{[(2R)-1-(3-aminopropyl)-5-oxopyrrolidin-2-yl]methyl}(5-cyano-2-{[2-(3-fluorophenyl)ethyl]amino}-6-pyrazol-4-yl(3-pyridyl))carboxamide], 735 nM.
The value for `Cn1cc(-c2nc(NCCc3cccc(F)c3)c(C(=O)NC[C@H]3CCC(=O)N3CCCN)cc2F)cn1` [N-{[(2R)-1-(3-aminopropyl)-5-oxopyrrolidin-2-yl]methyl}(5-fluoro-2-{[2-(3-fluorophenyl)ethyl]amino}-6-(1-methylpyrazol-4-yl)(3-pyridyl))carboxamide] was 79 nM.
The value for `NCCCN1C(=O)CC[C@@H]1CNC(=O)c1cc(F)c(-c2cn[nH]c2)nc1NCCc1cccc(F)c1` [N-{[(2R)-1-(3-aminopropyl)-5-oxopyrrolidin-2-yl]methyl}(5-fluoro-2-{[2-(3-fluorophenyl)ethyl]amino}-6-pyrazol-4-yl(3-pyridyl))carboxamide] was 66 nM.
For the molecule `N#Cc1ccccc1-c1ccc(C(=O)NC[C@H]2CCC(=O)N2CCCN)c(NCCc2cccc(F)c2)n1` [N-{[(2R)-1-(3-aminopropyl)-5-oxopyrrolidin-2-yl]methyl}(6-(2-cyanophenyl)-2-{[2-(3-fluorophenyl)ethyl]amino}(3-pyridyl))carboxamide], the IC50 was 42 nM.
The value for `Cc1cc(C(=O)NC[C@H]2CCC(=O)N2CCCN)c(NCCc2cccc(F)c2)nc1-c1ccccc1C#N` [N-{[(2R)-1-(3-aminopropyl)-5-oxopyrrolidin-2-yl]methyl}(6-(2-cyanophenyl)-2-{[2-(3-fluorophenyl)ethyl]amino}-5-methyl(3-pyridyl))carboxamide] was 1230 nM; that for `N#Cc1ccccc1-c1nc(NCCc2cccc(F)c2)c(C(=O)NC[C@H]2CCC(=O)N2CCCN)cc1F` [N-{[(2R)-1-(3-aminopropyl)-5-oxopyrrolidin-2-yl]methyl}(6-(2-cyanophenyl)-5-fluoro-2-{[2-(3-fluorophenyl)ethyl]amino}(3-pyridyl))carboxamide] was 42 nM; that for `N#Cc1ccccc1-c1ccc(C(=O)NC[C@H]2CCCC(=O)N2CCCN)c(NCCc2cccc(F)c2)n1` [N-{[(2R)-1-(3-aminopropyl)-6-oxo(2-piperidyl)]methyl}(6-(2-cyanophenyl)-2-{[2-(3-fluorophenyl)ethyl]amino}(3-pyridyl))carboxamide] was 26 nM.
To `Cn1cc(-c2ccc(C(=O)NC[C@H]3CNCC(=O)N3CCCN)c(NCCc3cccc(F)c3)n2)cn1` [N-{[(2R)-1-(3-aminopropyl)-6-oxopiperazin-2-yl]methyl}(2-{[2-(3-fluorophenyl)ethyl]amino}-6-(1-methylpyrazol-4-yl)(3-pyridyl))carboxamide] belongs 3560 nM.
The value for `NCCCN1C(=O)CNC[C@@H]1CNC(=O)c1ccc(-c2cc[nH]n2)nc1NCCc1cccc(F)c1` [N-{[(2R)-1-(3-aminopropyl)-6-oxopiperazin-2-yl]methyl}(2-{[2-(3-fluorophenyl)ethyl]amino}-6-pyrazol-3-yl(3-pyridyl))carboxamide] was 9630 nM.
In the case of `NCCCN1C(=O)CNC[C@@H]1CNC(=O)c1ccc(-c2cn[nH]c2)nc1NCCc1cccc(F)c1` [N-{[(2R)-1-(3-aminopropyl)-6-oxopiperazin-2-yl]methyl}(2-{[2-(3-fluorophenyl)ethyl]amino}-6-pyrazol-4-yl(3-pyridyl))carboxamide], the IC50 stood at 2340 nM.
The value for `N#Cc1ccccc1-c1ccc(C(=O)NC[C@H]2CNCC(=O)N2CCCN)c(NCCc2cccc(F)c2)n1` [N-{[(2R)-1-(3-aminopropyl)-6-oxopiperazin-2-yl]methyl}(6-(2-cyanophenyl)-2-{[2-(3-fluorophenyl)ethyl]amino}(3-pyridyl))carboxamide] was 318 nM; that for `N#Cc1ccccc1-c1ccc(C(=O)NC[C@H]2CCCCN2C(=O)CCCN)c(NCCc2cccc(F)c2)n1` [N-{[(2R)-1-(4-aminobutanoyl)(2-piperidyl)]methyl}(6-(2-cyanophenyl)-2-{[2-(3-fluorophenyl)ethyl]amino}(3-pyridyl))carboxamide] was 83 nM; that for `Cn1cc(-c2nc(NCCc3cccc(F)c3)c(C(=O)NC[C@H]3CCN3C(=O)CCCN)cc2F)cn1` [N-{[(2R)-1-(4-aminobutanoyl)azetidin-2-yl]methyl}(5-fluoro-2-{[2-(3-fluorophenyl)ethyl]amino}-6-(1-methylpyrazol-4-yl)(3-pyridyl))carboxamide] was 40 nM.
To `N#Cc1ccccc1-c1ccc(C(=O)NC[C@H]2CCN2C(=O)CCCN)c(NCCc2cccc(F)c2)n1` [N-{[(2R)-1-(4-aminobutanoyl)azetidin-2-yl]methyl}(6-(2-cyanophenyl)-2-{[2-(3-fluorophenyl)ethyl]amino}(3-pyridyl))carboxamide] belongs 25 nM; to `N#Cc1ccccc1-c1ccc(C(=O)NC[C@H]2CNCCN2C(=O)CCCN)c(NCCc2cccc(F)c2)n1` [N-{[(2R)-1-(4-aminobutanoyl)piperazin-2-yl]methyl}(6-(2-cyanophenyl)-2-{[2-(3-fluorophenyl)ethyl]amino}(3-pyridyl))carboxamide], 5480 nM; to `N#Cc1ccccc1-c1ccc(C(=O)NC[C@H]2CCCN2C(=O)CCCN)c(NCCc2cc(F)cc(F)c2)n1` [N-{[(2R)-1-(4-aminobutanoyl)pyrrolidin-2-yl]methyl}(2-{[2-(3,5-difluorophenyl)ethyl]amino}-6-(2-cyanophenyl)(3-pyridyl))carboxamide], 23 nM.
The value for `Cc1cc(C(=O)NC[C@H]2CCCN2C(=O)CCCN)c(NCCc2cccc(F)c2)nc1-c1cnn(C)c1` [N-{[(2R)-1-(4-aminobutanoyl)pyrrolidin-2-yl]methyl}(2-{[2-(3-fluorophenyl)ethyl]amino}-5-methyl-6-(1-methylpyrazol-4-yl)(3-pyridyl))carboxamide] was 381 nM.
As for `Cn1cc(-c2ccc(C(=O)NC[C@H]3CCCN3C(=O)CCCN)c(NCCc3cccc(F)c3)n2)cn1` [N-{[(2R)-1-(4-aminobutanoyl)pyrrolidin-2-yl]methyl}(2-{[2-(3-fluorophenyl)ethyl]amino}-6-(1-methylpyrazol-4-yl)(3-pyridyl))carboxamide], the IC50 was determined as 351 nM.
The value for `Cn1cc(-c2nc(NCCc3cccc(F)c3)c(C(=O)NC[C@H]3CCCN3C(=O)CCCN)cc2Cl)cn1` [N-{[(2R)-1-(4-aminobutanoyl)pyrrolidin-2-yl]methyl}(5-chloro-2-{[2-(3-fluorophenyl)ethyl]amino}-6-(1-methylpyrazol-4-yl)(3-pyridyl))carboxamide] was 47 nM.
Consider `Cn1cc(-c2nc(NCCc3cccc(F)c3)c(C(=O)NC[C@H]3CCCN3C(=O)CCCN)cc2C#N)cn1` [N-{[(2R)-1-(4-aminobutanoyl)pyrrolidin-2-yl]methyl}(5-cyano-2-{[2-(3-fluorophenyl)ethyl]amino}-6-(1-methylpyrazol-4-yl)(3-pyridyl))carboxamide], for which the IC50 was 211 nM.
To `N#Cc1cc(C(=O)NC[C@H]2CCCN2C(=O)CCCN)c(NCCc2cccc(F)c2)nc1-c1cn[nH]c1` [N-{[(2R)-1-(4-aminobutanoyl)pyrrolidin-2-yl]methyl}(5-cyano-2-{[2-(3-fluorophenyl)ethyl]amino}-6-pyrazol-4-yl(3-pyridyl))carboxamide] belongs 359 nM; to `Cn1cc(-c2nc(NCCc3cccc(F)c3)c(C(=O)NC[C@H]3CCCN3C(=O)CCCN)cc2F)cn1` [N-{[(2R)-1-(4-aminobutanoyl)pyrrolidin-2-yl]methyl}(5-fluoro-2-{[2-(3-fluorophenyl)ethyl]amino}-6-(1-methylpyrazol-4-yl)(3-pyridyl))carboxamide], 87 nM; to `NCCCC(=O)N1CCCC1CNC(=O)c1cc(F)c(-c2cc[nH]n2)nc1NCCc1cccc(F)c1` [N-{[(2R)-1-(4-aminobutanoyl)pyrrolidin-2-yl]methyl}(5-fluoro-2-{[2-(3-fluorophenyl)ethyl]amino}-6-pyrazol-3-yl(3-pyridyl))carboxamide], 169 nM.
To `NCCCC(=O)N1CCC[C@@H]1CNC(=O)c1cc(F)c(-c2cn[nH]c2)nc1NCCc1cccc(F)c1` [N-{[(2R)-1-(4-aminobutanoyl)pyrrolidin-2-yl]methyl}(5-fluoro-2-{[2-(3-fluorophenyl)ethyl]amino}-6-pyrazol-4-yl(3-pyridyl))carboxamide] belongs 47 nM.

In general, IC50 refers to the point on the concentration scale where inhibition reaches its midpoint.
